{"source": "patent US11077128B2", "about": "“Selective inhibitors of Alpha2-containing isoforms of Na,K-ATPase and use thereof for reduction of intraocular pressure” (Yeda Research and Development Co. Ltd., priority 2015, dated 2021)", "key": {"[1]": {"molecular_target": "human Na,K-ATPase α2β1FXYD1 (Homo sapiens, UniProt P50993)", "assay": "biochemical", "assay_type": "biochemical"}, "[2]": {"test_system": "IOP in rabbits", "assay_type": "in vivo, New Zealand white rabbits", "details": "one drop topically prior to 4AP, IOP over 5 hours"}, "[3]": {"test_system": "human Na,K-ATPase α2β3FXYD1", "assay": "biochemical", "assay_type": "biochemical"}, "[4]": {"test_system": "IOP in rabbits", "assay": "Lowering of basal IOP in rabbits, topical", "assay_type": "in vivo, New Zealand white rabbits"}, "[5]": {"molecular_target": "human Na,K-ATPase α1β1FXYD1 (Homo sapiens (Human), UniProt P05023)", "assay": "biochemical"}, "[6]": {"molecular_target": "human Na,K-ATPase α2β3FXYD1 (Homo sapiens (Human), UniProt P50993)", "assay": "biochemical", "assay_type": "biochemical"}, "[7]": {"molecular_target": "human Na,K-ATPase α2β2FXYD1 (Homo sapiens (Human), UniProt P50993)", "assay": "biochemical"}}, "note": "Where two headings read alike, the source gives them in different places.", "data": [{"smiles": "CC1CN(CC2CC2)CCC(O[C@@H]2C(C)O[C@@H](O[C@@H]3C(C)O[C@@H](O[C@H]4CC[C@@]5(C)C(CCC6C5CC(O)[C@]5(C)[C@@H](C7=CC(=O)OC7)CC[C@]65O)C4)C[C@@H]3O)C[C@@H]2O)O1", "note": "(stereo in doubt) [DMcP, 4-((3S,5R,8R,9S,10S,12R,13S,14S,17R)-3-(((2R,4S,5S,6R)-5-(((2S,4S,5S,6R)-5-((4-(cyclopropylmethyl)-2-methyl-1,4-oxazepan-7-yl)oxy)-4-hydroxy-6-methyltetrahydro-2H-pyran-2-yl)oxy)-4-hydroxy-6-methyltetrahydro-2H-pyran-2-yl)oxy)-12,14-dihydroxy-10,13-dimethylhexadecahydro-1H-cyclopenta[a]phenanthren-17-yl)furan-2(5H)-one]", "values": [{"measurement": "Selectivity Ki ratio α1β1/α2β1", "setting": "[1]", "value": 5.2}, {"measurement": "concentration that prevents the rise of the 4AP-induced IOP", "setting": "[2]", "value": 0.01, "unit": "mM"}, {"measurement": "Selectivity Ki ratio α1β1/α2β3", "setting": "[3]", "value": 22}]}, {"smiles": "CC1CN(C2CCC2)CCC(O[C@@H]2C(C)O[C@@H](O[C@@H]3C(C)O[C@@H](O[C@H]4CC[C@@]5(C)C(CCC6C5CC(O)[C@]5(C)[C@@H](C7=CC(=O)OC7)CC[C@]65O)C4)C[C@@H]3O)C[C@@H]2O)O1", "note": "(stereo in doubt) [DcB, 4-((3S,5R,8R,9S,10S,12R,13S,14S,17R)-3-(((2R,4S,5S,6R)-5-(((2S,4S,5S,6R)-5-((4-cyclobutyl-2-methyl-1,4-oxazepan-7-yl)oxy)-4-hydroxy-6-methyltetrahydro-2H-pyran-2-yl)oxy)-4-hydroxy-6-methyltetrahydro-2H-pyran-2-yl)oxy)-12,14-dihydroxy-10,13-dimethylhexadecahydro-1H-cyclopenta[a]phenanthren-17-yl)furan-2(5H)-one]", "values": [{"measurement": "reduction of basal IOP at higher concentration", "setting": "[4]; 2 mM", "value": "reduces the IOP similarly to 1 mM DcB"}, {"measurement": "concentration that prevents the rise of the 4AP-induced IOP", "setting": "[2]", "value": 0.01, "unit": "mM"}, {"measurement": "Selectivity Ki ratio α1β1/α2β3", "setting": "[3]", "value": 33}]}, {"smiles": "CC1CN(CC2CC2)CCC(O[C@@H]2C(C)O[C@@H](OC3C(C)OC(O[C@H]4CC[C@@]5(C)C(CCC6C5CC[C@]5(C)[C@@H](C7=CC(=O)OC7)CC[C@]65O)C4)C[C@@H]3O)C[C@@H]2O)O1", "note": "(stereo in doubt) [DtxMcP, 4-((3S,5R,8R,9S,10S,13R,14S,17R)-3-(((2S,4S,5R,6R)-5-(((2S,4S,5S,6R)-5-((4-(cyclopropylmethyl)-2-methyl-1,4-oxazepan-7-yl)oxy)-4-hydroxy-6-methyltetrahydro-2H-pyran-2-yl)oxy)-4-hydroxy-6-methyltetrahydro-2H-pyran-2-yl)oxy)-14-hydroxy-10,13-dimethylhexadecahydro-1H-cyclopenta[a]phenanthren-17-yl)furan-2(5H)-one]", "values": [{"measurement": "Ki", "setting": "[5]", "value": "25 ± 4", "unit": "nM"}, {"measurement": "Ki", "setting": "[1]", "value": "4.2 ± 0.4", "unit": "nM"}, {"measurement": "Ki", "setting": "[6]", "value": "3.7 ± 0.5", "unit": "nM"}, {"measurement": "Ki reduced compared to digoxin", "setting": "[6]", "value": "about 10 fold"}, {"measurement": "Ki", "setting": "[7]", "value": "5.4 ± 1.2", "unit": "nM"}]}, {"smiles": "CC1CN(C2CCC2)CCC(O[C@@H]2C(C)O[C@@H](OC3C(C)OC(O[C@H]4CC[C@@]5(C)C(CCC6C5CC[C@]5(C)[C@@H](C7=CC(=O)OC7)CC[C@]65O)C4)C[C@@H]3O)C[C@@H]2O)O1", "note": "(stereo in doubt) [DtxcB, 4-((3S,5R,8R,9S,10S,13R,14S,17R)-3-(((2S,4S,5R,6R)-5-(((2S,4S,5S,6R)-5-((4-cyclobutyl-2-methyl-1,4-oxazepan-7-yl)oxy)-4-hydroxy-6-methyltetrahydro-2H-pyran-2-yl)oxy)-4-hydroxy-6-methyltetrahydro-2H-pyran-2-yl)oxy)-14-hydroxy-10,13-dimethylhexadecahydro-1H-cyclopenta[a]phenanthren-17-yl)furan-2(5H)-one]", "values": [{"measurement": "Ki", "setting": "[5]", "value": "30.7 ± 7.2", "unit": "nM"}, {"measurement": "Ki", "setting": "[1]", "value": "5.4 ± 0.5", "unit": "nM"}, {"measurement": "Ki", "setting": "[6]", "value": "4.3 ± 0.6", "unit": "nM"}, {"measurement": "Ki reduced compared to digoxin", "setting": "[6]", "value": "about 10 fold"}, {"measurement": "Ki", "setting": "[7]", "value": "5.3 ± 0.8", "unit": "nM"}]}, {"smiles": "CC1CN(C)CCC(O[C@@H]2[C@H](C)O[C@@H](O[C@@H]3[C@H](C)O[C@@H](O[C@H]4CC[C@@]5(C)C(CCC6C5C[C@H](O)[C@]5(C)[C@@H](C7=CC(=O)OC7)CC[C@]65O)C4)C[C@@H]3O)C[C@@H]2O)O1", "note": "(stereo partly shown) [DMe]", "values": [{"measurement": "effect on lowering the basal IOP", "setting": "[4]; one drop of 1 mM solution, other eye PBS", "value": "coincides with other observations"}, {"measurement": "Selectivity Ki ratio α1β1/α2β1", "setting": "[1]", "value": 6.7}, {"measurement": "Selectivity Ki ratio α1β1/α2β3", "setting": "[3]", "value": 9.5}]}, {"smiles": "CC(=O)O[C@H]1C[C@H](O[C@H]2[C@@H](OC(C)=O)C[C@H](O[C@H]3CC[C@@]4(C)[C@H](CC[C@@H]5[C@@H]4C[C@@H](OC(C)=O)[C@]4(C)[C@@H](C6=CC(=O)OC6)CC[C@]54O)C3)O[C@@H]2C)O[C@H](C)[C@H]1OC1CCN(C2CCC2)CC(C)O1", "note": "(stereo partly drawn) [TrisAcDcB, (2R,3R,4S,6R)-6-(((3S,5R,8R,9S,10S,12R,13S,14S,17R)-12-acetoxy-14-hydroxy-10,13-dimethyl-17-(5-oxo-2,5-dihydrofuran-3-yl)hexadecahydro-1H-cyclopenta[a]phenanthren-3-yl)oxy)-3-(((2S,4S,5R,6R)-4-acetoxy-5-((4-cyclobutyl-2-methyl-1,4-oxazepan-7-yl)oxy)-6-methyltetrahydro-2H-pyran-2-yl)oxy)-2-methyltetrahydro-2H-pyran-4-yl acetate]", "values": [{"measurement": "time to minimum IOP", "setting": "[4]; 0.05-0.2 mM", "value": "5 to 6", "unit": "h"}, {"measurement": "minimum IOP", "setting": "[4]; dropped from 15-16 mmHg, 0.05-0.2 mM", "value": 12, "unit": "mmHg"}, {"measurement": "effect on basal IOP in the first hours (lag)", "setting": "[4]; one 30 μl drop, 0.05, 0.1, 0.2 mM", "value": "no effect was observed at the first four hours"}, {"measurement": "time of return of IOP to the control level", "setting": "[4]; prodrug, 0.05-0.2 mM", "value": 12, "unit": "h"}, {"measurement": "maximal effect on IOP compared with parent DcB", "setting": "[4]; rabbit, in vivo", "value": "essentially equal to that produced by the parent DcB"}]}, {"smiles": "[O]=[V]([OH])([OH])[OH]", "note": "[vanadate, reference compound]", "values": [{"measurement": "Ki", "setting": "[6]; read-out: apparent vanadate affinity (Ki vanadate) α2β3", "value": 19000, "unit": "nM"}]}]}
